Legend:
Plasma [1] = assay: Anticoagulant activity in human plasma assessed as concentration required to double prothrombin time; type: functional
Plasma [2] = assay: Anticoagulant activity in human plasma assessed as concentration required to double activated partial thromboplastin time; type: functional
Plasma [3] = assay: Anticoagulant activity in rabbit plasma assessed as concentration required to double prothrombin time; type: functional, Oryctolagus cuniculus
Plasma [4] = assay: Anticoagulant activity in rabbit plasma assessed as concentration required to double activated partial thromboplastin time; type: functional, Oryctolagus cuniculus
Rattus norvegicus = assay: Inhibition of thrombus formation in Sprague-Dawley rat at 10 mg/kg, po after 2 hrs relative to control; type: functional
Coagulation factor X [5] = molecular target: T1, Coagulation factor X (Homo sapiens, UniProt P00742); assay: Inhibition of human F10a assessed as decrease in p-nitroaniline cleavage from pefachrome F10a at 0.5 uM preincubated for 10 mins followed by substrate addition measured after 20 mins relative to control
T1 sequence (P00742 41-179 limits assumed): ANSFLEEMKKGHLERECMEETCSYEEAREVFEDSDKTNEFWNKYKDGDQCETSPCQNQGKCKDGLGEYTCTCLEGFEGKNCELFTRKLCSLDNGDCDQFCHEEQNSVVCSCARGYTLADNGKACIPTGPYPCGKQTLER
T1 sequence (P00742 235-488 limits assumed): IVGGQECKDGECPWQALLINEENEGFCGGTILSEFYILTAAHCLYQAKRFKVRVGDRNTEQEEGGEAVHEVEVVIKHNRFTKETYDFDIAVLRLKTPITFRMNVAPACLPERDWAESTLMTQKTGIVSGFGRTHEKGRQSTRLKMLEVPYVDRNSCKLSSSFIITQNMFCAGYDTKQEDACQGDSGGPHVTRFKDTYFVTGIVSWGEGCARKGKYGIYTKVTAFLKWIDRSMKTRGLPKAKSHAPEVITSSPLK

Coagulation factor X [6] = molecular target: T1, Coagulation factor X; assay: Inhibition of human F10a assessed as decrease in p-nitroaniline cleavage from pefachrome F10a at 5 uM preincubated for 10 mins followed by substrate addition measured after 20 mins relative to control
Coagulation factor X [7] = molecular target: T1, Coagulation factor X; assay: Inhibition of human F10a assessed as decrease in p-nitroaniline cleavage from pefachrome F10a preincubated for 10 mins followed by substrate addition measured after 20 mins

| inhibition (Coagulation factor X [5]) [%] | inhibition (Coagulation factor X [6]) [%] | IC50 (Coagulation factor X [7]) [nM] | Structure (SMILES) | 2PT (Plasma [1]) [µM] | 2aPTT (Plasma [2]) [µM] | 2PT (Plasma [3]) [µM] | 2aPTT (Plasma [4]) [µM] | inhibition in vivo at 10 mg/kg (Rattus norvegicus) [%] |
| --- | --- | --- | --- | --- | --- | --- | --- | --- |
|  |  |  | COc1ccc(-n2nc(C3=NCCCN3)c3c2C(=O)N(c2ccc(N4CCCCC4=O)cc2)CC3)cc1 | 9.4 | 13.5 | 10.8 | 15.4 |  |
|  |  |  | COc1ccc(-n2nc(C3=NC(C)CN3)c3c2C(=O)N(c2ccc(N4CCCCC4=O)cc2)CC3)cc1 (stereo not given) | 8.9 | 14.6 | 10 | 17.1 |  |
|  |  |  | COc1ccc(-n2nc(C(N)=O)c3c2C(=O)N(c2ccc(N4CCCCC4=O)cc2)CC3)cc1 [APIXABAN] | 0.8 | 0.9 | 1 | 1.4 | 95 |
|  |  |  | COc1ccc(-n2nc(Cn3nnc4ccccc43)c3c2C(=O)N(c2ccc(N4CCCCC4=O)cc2)CC3)cc1 | 25.2 | 31.6 | 29.4 | 39.1 |  |
|  |  |  | CCN(CC)Cc1nncn1-c1nn(-c2ccc(OC)cc2)c2c1CCN(c1ccc(N3CCCCC3=O)cc1)C2=O | 7.2 | 9.6 | 8 | 11.5 |  |
| 86.7 | 94 | 360 | COc1ccc(-n2nc(Cn3cc(C#N)nn3)c3c2C(=O)N(c2ccc(N4CCCCC4=O)cc2)CC3)cc1 | 0.7 | 1 | 0.9 | 1.5 | 89 |
|  |  |  | COc1ccc(-n2nc(-n3cnnc3CN3CCCC3)c3c2C(=O)N(c2ccc(N4CCCCC4=O)cc2)CC3)cc1 | 7.6 | 15.6 | 8.4 | 18 |  |
| 66.1 | 76.4 |  | COc1ccc(-c2ncn(Cc3nn(-c4ccc(OC)cc4)c4c3CCN(c3ccc(N5CCCCC5=O)cc3)C4=O)n2)cc1 | 0.8 | 1.1 | 1.2 | 1.7 |  |
|  |  |  | COc1ccc(-n2nc(Cn3nc(-c4ccccc4)[nH]c3=O)c3c2C(=O)N(c2ccc(N4CCCCC4=O)cc2)CC3)cc1 | 11.7 | 27.1 | 12.4 | 29.8 |  |
|  |  |  | COc1ccc(-n2nc(Cn3cnc(-c4ccncc4)n3)c3c2C(=O)N(c2ccc(N4CCCCC4=O)cc2)CC3)cc1 | 1.6 | 2.3 | 1.9 | 2.1 |  |
|  |  |  | COc1ccc(-n2nc(C3=NCCCCN3)c3c2C(=O)N(c2ccc(N4CCCCC4=O)cc2)CC3)cc1 | 10.9 | 24.3 | 12.1 | 26.9 |  |
| 60.6 | 70.3 |  | COc1ccc(-n2nc(Cn3cnc(-c4ccc(F)cc4)n3)c3c2C(=O)N(c2ccc(N4CCCCC4=O)cc2)CC3)cc1 | 0.9 | 2.3 | 2.1 | 3.1 |  |
|  |  |  | COc1ccc(-c2nn(Cc3nn(-c4ccc(OC)cc4)c4c3CCN(c3ccc(N5CCCCC5=O)cc3)C4=O)c(=O)[nH]2)cc1 | 17.7 | 19.5 | 19.3 | 23.2 |  |
|  |  |  | COc1ccc(-n2nc(Cn3cnc(-c4ccccc4)n3)c3c2C(=O)N(c2ccc(N4CCCCC4=O)cc2)CC3)cc1 | 2.4 | 3.6 | 3.4 | 5 |  |
|  |  |  | COc1ccc(-n2nc(Cn3ccnn3)c3c2C(=O)N(c2ccc(N4CCCCC4=O)cc2)CC3)cc1 | 2.4 | 3.7 | 2.1 | 3.9 |  |
|  |  |  | COc1ccc(-n2nc(-n3cnnn3)c3c2C(=O)N(c2ccc(N4CCCCC4=O)cc2)CC3)cc1 | 4.2 | 7.3 | 5.7 | 8.2 |  |
|  |  |  | COc1ccc(-n2nc(C3=NCCN3C)c3c2C(=O)N(c2ccc(N4CCCCC4=O)cc2)CC3)cc1 | 8.8 | 10.5 | 9.6 | 12 |  |
| 55.1 | 65.2 |  | COc1ccc(-n2nc(-n3cnnc3C)c3c2C(=O)N(c2ccc(N4CCCCC4=O)cc2)CC3)cc1 | 1.2 | 2.8 | 1.7 | 3 |  |
|  |  |  | COc1ccc(-n2nc(-n3cnnc3N)c3c2C(=O)N(c2ccc(N4CCCCC4=O)cc2)CC3)cc1 | 4.1 | 8.3 | 5.9 | 9.1 |  |
| 94.5 | 99 | 140 | COc1ccc(-n2nc(-n3cnnc3CN3CCOCC3)c3c2C(=O)N(c2ccc(N4CCCCC4=O)cc2)CC3)cc1 | 0.5 | 0.7 | 0.9 | 1.2 | 98 |
|  |  |  | COc1ccc(-n2nc(Cn3cc(C(N)=O)nn3)c3c2C(=O)N(c2ccc(N4CCCCC4=O)cc2)CC3)cc1 | 1.4 | 3.1 | 2.1 | 5.2 |  |
|  |  |  | COc1ccc(-n2nc(C3=NCCN3)c3c2C(=O)N(c2ccc(N4CCCCC4=O)cc2)CC3)cc1 | 6.2 | 11.8 | 7.5 | 12.5 |  |
|  |  |  | COc1ccc(-n2nc(Cn3cnc(-c4cccnc4)n3)c3c2C(=O)N(c2ccc(N4CCCCC4=O)cc2)CC3)cc1 | 2 | 4.3 | 3.2 | 5.2 |  |
|  |  |  | COc1ccc(-n2nc(-n3cnnc3)c3c2C(=O)N(c2ccc(N4CCCCC4=O)cc2)CC3)cc1 | 4.9 | 10 | 5.7 | 13.7 |  |
|  |  |  | COc1ccc(-n2nc(Cn3cnc(-c4ccc(Cl)cc4)n3)c3c2C(=O)N(c2ccc(N4CCCCC4=O)cc2)CC3)cc1 | 1.9 | 3.6 | 3.5 | 5 |  |

— ChEMBL document CHEMBL4024723, “Design, synthesis, and biological activity of novel tetrahydropyrazolopyridone derivatives as FXa inhibitors with potent anticoagulant activity” (Bioorg Med Chem, 2017)
